The values below come from paper PMC8011931, “Identification, Structure–Activity Relationship, and Biological Characterization of 2,3,4,5-Tetrahydro-1H-pyrido[4,3-b]indoles as a Novel Class of CFTR Potentiators” (Journal of Medicinal Chemistry, 2020).

Data set [1] in a line: Liver microsomal stability, phase I (NADPH), dog. As to conditions: for dog LM_NADPH parent compound remaining at the last time point (in parentheses): 4.6 μM, 60 min; for half-life at 4.6 μM: dog, liver microsomes, pH 7.5, 0.1% DMSO, n ≥ 3, read-out: dog LM_NADPH t1/2. The class given is in vitro ADME. The protocol:
[…] The final concentration was 4.6 μM. After preincubation, the cofactors (NADPH, G6P, G6PDH, and MgCl2 predissolved in 0.1 M Tris–HCl) were added to the incubation mixture and the incubation was continued at 37 °C for 1 h.
(§1) For both phase I and II studies: At each time point (0, 5, 15, 30, and 60 min), 30 μL of the incubation mixture was diluted with 200 μL of cold CH3CN spiked with 200 nM of an appropriate internal standard, followed by centrifugation at 3270g for 15 min. The supernatant was further diluted with H2O (1:1) for analysis. A reference incubation mixture (microsomes without cofactors) was prepared for each test compound and analyzed at t = 0 and 60 min in order to verify the compound’s stability in the matrix. The two time points were diluted as for the time points of the incubation mixture above. The supernatants were analyzed by LC/MS–MS on a Waters ACQUITY UPLC/MS TQD system consisting of a TQD (triple quadrupole detector) mass spectrometer equipped with an electrospray ionization interface and a photodiode array eλ detector. Electrospray ionization was applied in positive mode. Compound-dependent parameters as MRM transitions and collision energy were developed for each compound. The analyses were run on an ACQUITY UPLC BEH C18 (50 × 2.1 mm ID, particle size 1.7 μm) with a VanGuard BEH C18 precolumn (5 × 2.1 mm ID, particle size 1.7 μm) at 40 °C, using H2O + 0.1% HCOOH (A) and CH3CN + 0.1% HCOOH (B) as the mobile phase. The percentage of test compound remaining at each time point relative to t = 0 was calculated by the response factor on the basis of the internal standard peak area. The percentage of test compound versus time was plotted and fitted by GraphPad Prism (GraphPad Software, Version 5 for Windows, CA, USA, www.graphpad.com) to estimate the compound’s half-life (t1/2), which was reported as mean value along with the standard deviation (n = 3).
On the technique in general: Microsomes from liver hold many membrane-bound enzymes, among them those of drug oxidation.

Data set [2] in a line: Liver microsomal stability, phase I (NADPH), human. The class given is in vitro ADME. The conditions noted are these: for half-life at 1 h, 4.6 µM / half-life at 4.6 μM: human, liver microsomes, pH 7.5, 0.1% DMSO, n ≥ 3, read-out: human LM_NADPH t1/2; for human LM_NADPH parent compound remaining at the last time point (in parentheses): 4.6 μM, 60 min. The protocol: Phase I: 10 mM DMSO stock solution of the test compound was preincubated at 37 °C for 15 min with rat, dog, or human liver microsomes in 0.1 M Tris–HCl buffer (pH 7.5) with 10% DMSO. The final concentration was 4.6 μM. After preincubation, the cofactors (NADPH, G6P, G6PDH, and MgCl2 predissolved in 0.1 M Tris–HCl) were added to the incubation mixture and the incubation was continued at 37 °C for 1 h.
as §1

Data set [3] deals with F508del-CFTR (Homo sapiens, UniProt P13569, DEL508-508). Put plainly: HS-YFP-based assay for CFTR activity on F508del-CFTR FRT cells rescued at 32 °C for 24 h. It is filed as cell-based. Also on record: expressed in transfected cells; key to Emax: fold increase in F508del-CFTR rescue relative to hit 3 (normalized). The conditions noted are these: for EC50: F508del-CFTR FRT cells rescued at 32 °C for 24 h, plus forskolin; for Emax: supplementary csv, same data as Tables 1–3. The gist of the method: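 FRT cells co-expressing F508del-CFTR and HS-YFP (H148Q/I152L) were rescued 24 h at 32 °C, then exposed to compound plus forskolin (10 or 20 μM) for about 25 min in PBS. Iodide injection (100 mM final) quenched YFP (ex 500/em 535 nm). The initial dF/dt gave activity, fitted for EC50 and for Emax relative to a reference hit.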
Sequence of F508del-CFTR (P13569 with tags, fused parts or gaps DEL508-508): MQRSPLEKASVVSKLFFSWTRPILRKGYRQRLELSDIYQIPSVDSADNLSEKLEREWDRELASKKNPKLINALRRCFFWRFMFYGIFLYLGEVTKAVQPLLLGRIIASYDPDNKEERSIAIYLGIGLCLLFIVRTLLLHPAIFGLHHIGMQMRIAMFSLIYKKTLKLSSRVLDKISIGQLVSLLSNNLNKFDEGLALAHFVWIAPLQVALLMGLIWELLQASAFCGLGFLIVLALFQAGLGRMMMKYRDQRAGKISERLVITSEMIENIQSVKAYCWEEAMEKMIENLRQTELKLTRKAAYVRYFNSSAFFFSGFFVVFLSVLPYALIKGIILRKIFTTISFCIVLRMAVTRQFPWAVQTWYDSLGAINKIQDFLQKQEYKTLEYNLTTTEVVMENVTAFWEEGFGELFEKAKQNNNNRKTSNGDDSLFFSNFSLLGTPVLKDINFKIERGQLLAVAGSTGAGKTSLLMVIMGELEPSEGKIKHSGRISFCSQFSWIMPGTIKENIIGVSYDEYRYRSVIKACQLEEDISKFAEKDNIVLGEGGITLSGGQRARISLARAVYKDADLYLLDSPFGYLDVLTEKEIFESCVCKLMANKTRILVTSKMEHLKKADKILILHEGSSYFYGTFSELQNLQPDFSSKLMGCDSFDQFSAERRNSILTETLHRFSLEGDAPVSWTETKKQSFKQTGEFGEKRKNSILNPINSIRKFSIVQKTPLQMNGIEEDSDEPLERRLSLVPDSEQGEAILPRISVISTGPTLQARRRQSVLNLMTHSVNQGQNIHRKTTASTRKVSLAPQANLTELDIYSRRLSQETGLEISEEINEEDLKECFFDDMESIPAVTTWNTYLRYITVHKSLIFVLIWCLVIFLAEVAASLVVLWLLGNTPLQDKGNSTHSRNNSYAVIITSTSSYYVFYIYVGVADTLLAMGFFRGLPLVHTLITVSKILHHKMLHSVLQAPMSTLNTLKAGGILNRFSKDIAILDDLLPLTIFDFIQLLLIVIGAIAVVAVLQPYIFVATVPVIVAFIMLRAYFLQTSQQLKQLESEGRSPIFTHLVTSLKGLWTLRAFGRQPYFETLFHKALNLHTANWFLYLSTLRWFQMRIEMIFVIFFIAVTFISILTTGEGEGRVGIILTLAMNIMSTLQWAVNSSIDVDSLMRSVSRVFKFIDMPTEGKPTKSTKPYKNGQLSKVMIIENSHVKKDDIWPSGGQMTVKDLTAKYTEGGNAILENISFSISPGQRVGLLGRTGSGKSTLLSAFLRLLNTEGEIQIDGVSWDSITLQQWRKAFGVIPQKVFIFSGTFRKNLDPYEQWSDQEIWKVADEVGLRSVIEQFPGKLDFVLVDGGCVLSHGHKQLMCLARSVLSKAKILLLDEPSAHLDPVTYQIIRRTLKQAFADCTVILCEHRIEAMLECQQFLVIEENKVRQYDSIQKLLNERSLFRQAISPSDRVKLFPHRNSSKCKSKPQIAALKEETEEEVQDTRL

Data set [4] is described as follows: Liver microsomal stability, phase II (UDPGA), human. It is filed as in vitro ADME. The conditions noted are these: for human LM_UDPGA parent compound remaining at the last time point (in parentheses): 4.6 μM, 60 min; for half-life at 4.6 μM: human, liver microsomes, pH 7.5, 0.1% DMSO, n ≥ 3, read-out: human LM_UDPGA t1/2. The protocol: Phase II: 10 mM DMSO stock solution of the test compound was preincubated at 37 °C for 15 min with human liver microsomes added alamethicin in 0.1 M Tris–HCl buffer (pH 7.5) with 10% DMSO. The final concentration was 4.6 μM. After preincubation, the cofactors (UDPGA, D-saccharic acid lactone, and MgCl2 predissolved in 0.1 M Tris–HCl) were added to the incubation mixture and the incubation was continued at 37 °C for 1 h.
as §1

Where [5] appears, read: mean ± SD (n = 3–6), n.a.: not active (up to 20 μM).

Regarding `COc1ccc2[nH]c3c(c2c1)CN(C(=O)c1cc(C(F)(F)F)[nH]n1)CC3` [Compound 3, (8-Methoxy-1,3,4,5-tetrahydropyrido[4,3-b]indol-2-yl)-[5-(trifluoromethyl)-1H-pyrazol-3-yl]methanone], in data set [1], the “dog LM_NADPH parent compound remaining at the last time point (in parentheses)” value (shortened to “dog LM_NADPH parent compound remaining”) amounted to 68% and the half-life at 4.6 μM is over 1 h. The half-life at 1 h, 4.6 µM in data set [2] came out at 0.7 ± 0.183 h. The EC50 (commonly the midpoint of the concentration-response curve) in data set [3] (setting [5]) is 0.35 ± 0.13 µM. Moreover, the Emax in data set [3] came out at 1 ± 0.04.

On to `O=C(c1cc(C(F)(F)F)[nH]n1)N1CCc2[nH]c3c(F)cccc3c2C1` [Compound 20, (6-Fluoro-1,3,4,5-tetrahydro-2H-pyrido[4,3-b]indol-2-yl)-(5-(trifluoromethyl)-1H-pyrazol-3-yl)methanone], for which, in data set [1], the “dog LM_NADPH parent compound remaining” value stood at 85% and the half-life at 4.6 μM is over 1 h. For the same compound, in data set [2], the “human LM_NADPH parent compound remaining at the last time point (in parentheses)” value (“human LM_NADPH parent compound remaining” for short) is 78% and the half-life at 4.6 μM is over 1 h. The EC50 in data set [3] (setting [5]) is 0.096 ± 0.021 µM. Also, the “Emax (FRT F508del-CFTR)” value in data set [3] (normalized for the activity of analogue 3, mean ± SD (n = 3–6), n.a.: not active (up to 20 μM)) came out at 0.96 ± 0.06. In data set [3], the Emax is given as 0.96 ± 0.06.

As for `COc1cc(F)c2[nH]c3c(c2c1)CN(C(=O)c1cc(C(F)(F)F)[nH]n1)CC3` [Compound 25, (6-Fluoro-8-methoxy-1,3,4,5-tetrahydro-2H-pyrido[4,3-b]indol-2-yl)-(5-(trifluoromethyl)-1H-pyrazol-3-yl)methanone], in data set [1], the “dog LM_NADPH parent compound remaining” value is 90% and the half-life at 4.6 μM is over 1 h. In data set [2], the half-life at 1 h, 4.6 µM stood at 0.55 ± 0.0167 h. In addition, the EC50 in data set [3] (setting [5]) was 0.13 ± 0.06 µM. The Emax in data set [3] came out at 1.15 ± 0.13.

`O=C(c1cc(C(F)(F)F)[nH]n1)N1CCc2[nH]c3c(F)ccc(F)c3c2C1` [Compound 29, (6,9-Difluoro-1,3,4,5-tetrahydro-2H-pyrido[4,3-b]indol-2-yl)-(5-(trifluoromethyl)-1H-pyrazol-3-yl)methanone]: in data set [1], the “dog LM_NADPH parent compound remaining” value is 93% and the half-life at 4.6 μM was over 1 h. In data set [2], the “human LM_NADPH parent compound remaining” value was >60 (60) % and the half-life at 4.6 μM was over 1 h. Besides, in data set [3] (setting [5]), the EC50 stood at 0.15 ± 0.08 µM. The Emax in data set [3] is 1.19 ± 0.15.

Consider `Cc1ccc(F)c2[nH]c3c(c12)CN(C(=O)c1cc(C(F)(F)F)[nH]n1)CC3` [Compound 30, (6-Fluoro-9-methyl-1,3,4,5-tetrahydro-2H-pyrido[4,3-b]indol-2-yl)-(5-(trifluoromethyl)-1H-pyrazol-3-yl)methanone], for which, in data set [1], the “dog LM_NADPH parent compound remaining” value is 92% and the half-life at 4.6 μM was over 1 h. Also, the half-life at 1 h, 4.6 µM in data set [2] is 0.883 ± 0.0333 h. For the same compound, in data set [4], the “human LM_UDPGA parent compound remaining at the last time point (in parentheses)” value is given as 75% and the half-life at 4.6 μM is over 1 h. Also, the “fold increase in potency compared to hit 3” value in data set [3] (EC50, F508del-CFTR FRT cells) was “more than 6 fold”. Further, the EC50 in data set [3] (setting [5]) came to 0.06 ± 0.03 µM. Besides, in data set [3], the Emax came out at 1.00 ± 0.09.

On to `Cc1ccc(F)c2[nH]c3c(c12)CN(C(=O)c1cc(C(F)(F)F)[nH]n1)[C@H](C)C3` [Compound 39, (R)-(6-Fluoro-3,9-dimethyl-1,3,4,5-tetrahydro-2H-pyrido[4,3-b]indol-2-yl)-(5-(trifluoromethyl)-1H-pyrazol-3-yl)methanone], for which, in data set [1], the “dog LM_NADPH parent compound remaining” value came out at 92% and the half-life at 4.6 μM is over 1 h. Moreover, in data set [2], the “human LM_NADPH parent compound remaining” value is given as 71% and the half-life at 4.6 μM is over 1 h. Besides, in data set [4], the “human LM_UDPGA parent compound remaining at the last time point (in parentheses)” value turned out to be 79% and the half-life at 4.6 μM is over 1 h. Moreover, in data set [3], the “activity on F508del-CFTR FRT cells (in words)” value is recorded as “the most potent analogue” and the Emax came out at 1.30 ± 0.12. Moreover, in data set [3] (setting [5]), the EC50 turned out to be 0.017 ± 0.007 µM. Also, the “activity compared to VX-770” value in data set [3] (tested at 10 and 1 nM, Figure 6A) is listed as “slightly lower activity than VX-770”.
